Test results from ChEMBL document CHEMBL1135222, “Anionic cyclophanes as potential reversal agents of muscle relaxants by chemical chelation” (Bioorg Med Chem Lett, 2002).

Key:
Type in all cases: functional, organism-based
[1] = species on record: Gallus gallus; experiment: Concentration that produced 50% reversal of gallamine induced neuromuscular block in the chick biventer assay
[2] = species on record: Gallus gallus; experiment: Concentration that produced 50% reversal of pancuronium induced neuromuscular block in the chick biventer assay
[3] = species on record: Gallus gallus; experiment: Tested for association constant against gallamine relaxant in chick biventer muscle preparation
[4] = species on record: Gallus gallus; experiment: Tested for association constant against pancuronium relaxant in chick biventer muscle preparation
[5] = species on record: Gallus gallus; experiment: Tested for the reversion of vecuronium-induced block in chick biventer assay

EC50 [1] [µM]	EC50 [2] [µM]	Compound	Ka [3] [M⁻¹]	Ka [4] [M⁻¹]	EC50 [5] [nM]
563	292	O=C(O)c1cc2ccc1OCc1ccc(cc1)COc1ccc(cc1C(=O)O)Cc1ccc(c(C(=O)O)c1)OCc1ccc(cc1)COc1ccc(cc1C(=O)O)C2	3280	2500	–
104	40	O=C(O)c1cc2ccc1OCc1ccc3cc(ccc3c1)COc1ccc(cc1C(=O)O)Cc1ccc(c(C(=O)O)c1)OCc1ccc3cc(ccc3c1)COc1ccc(cc1C(=O)O)C2	13200	10400	–
–	–	CN(C)C(=O)Oc1cccc([N+](C)(C)C)c1 [NEOSTIGMINE BROMIDE]	–	–	28
1030	142	O=C(O)c1cc2ccc1OCCCCCOc1ccc(cc1C(=O)O)Cc1ccc(c(C(=O)O)c1)OCCCCCOc1ccc(cc1C(=O)O)C2	608	167	–
